Results on two molecules are retold here after patent publication US9272993B2, “Naphthoquinone derivatives useful for prevention of amyloid deposits and treatment of diseases involving amyloidogenesis” (TECHNOLOGY INNOVATION MOMENTUM FUND (ISRAEL) LIMITED …, priority 2008, dated 2016).

The subject of one data set is rat PC12 cell line. The experiment in a line: MTT cell viability assay, cytotoxicity of soluble Aβ oligomers. It is filed as cell-based. As to conditions: PC12 cells, 24 hours. The protocol: The cytotoxicity assay was performed with Rat PC12 cells (1.5×10^5 cells/mL) cultured in 96-well microplates (100 μL/well) and incubated overnight at 37° C. Samples with toxic oligomers from above were either dialyzed over night against PBS buffer or diluted with 9 volumes of an aqueous solution containing 33% methanol and 4% acetic acid, and incubated for 2 hours at 4° C. The samples were then centrifuged at 16,000 g for 40 minutes, the supernatant discarded and the pellet was resuspended in 5 mM NaH2PO4, 35 mM NaCl, pH 7.4. To each well we added 100 μL of 0.5 μM Aβ which formed toxic oligomers and prepared mixtures of inhibitors at various concentrations. Each experiment was repeated four times. Following incubation for 24 hours at 37° C., cell viability was evaluated using the MTT assay. Briefly, 20 μL of 5 mg/mL MTT dissolved in PBS was added to each well. […] Finally, color intensity was measured using an ELISA reader at 570 nm.
To further substantiate the inhibition induced by SY-81, it was tested whether SY-81 affects the toxicity of Aβ oligomers towards the rat PC12 cell line. Toxic oligomers were pre-incubated with different concentrations of SY-81 and toxicity was assessed using the MTT cell viability assay.

A further data set has as its target T1, Aβ1-42 (Homo sapiens, UniProt P05067).
T1 construct: Amyloid β-peptide(1-42) and amyloid β-peptide(1-40) trifluoroacetate salts; purchased Bachem (Bubendorf, Switzerland); host or cells: synthetic peptide
The experiment in a line: Fluorescence anisotropy (polarization) titration with Aβ1-42. It is filed as binding. As to the method:
For the florescence anisotropy studies SY-81 or SY-83 was dissolved in DMSO to a concentration of 1 μM and sonicated for 5 min. The solution was immediately mixed with aliquots of an Aβ1-42 stock solution (20 μM) to varying final polypeptide concentrations. SY-81 and SY-83 polarization measurements were carried out using an ISS K2 fluorimeter. The solutions were excited at 280 nm and emission was monitored at 350 nm. For each single point, at least five measurements were collected and their average values were used for the calculation. All experiments were performed in PBS (pH 7.4).
Increasing amounts of Aβ were titrated into a solution of SY-83 or SY-81 and the anisotropy 15 was determined (FIG. 4A-B).
In general terms: Polarisation of emitted light reports the rotation of a fluorescent probe.

The target of a further data set is T2, Aβ1-40 fibrils (Homo sapiens, UniProt P05067).
T2 construct: Amyloid β-peptide(1-42) and amyloid β-peptide(1-40) trifluoroacetate salts; purchased Bachem (Bubendorf, Switzerland); host or cells: synthetic peptide
The data set can be described thus: Thioflavin T (ThT) fluorescence assay of fibril formation. Type of data set: biochemical. The protocol:
For executing the ThT florescence assay, Aβ1-40 was dissolved to a concentration of 10 μM in 10% DMSO in PBS (pH 7.4). Aβ was immediately mixed with or without different concentrations of SY-81 or SY-83 at a 1:1 ration to a final concentration of 5 μM. The samples were incubated at 37° C. and the fibrillogenesis rate was followed by thioflavin T (ThT) fluorescence assay (excitation at 450 nm, 2.5 nm slit, and emission at 480 nm, 5 nm slit), over a course of 11 days to two weeks. ThT was added to a 10-fold diluted sample and measured using a Jobin Yvon Horiba Fluoromax 3 fluorimeter.
Though there is a growing recognition that the early Aβ oligomer intermediates and not the fibrils are the most toxic amyloid forms in AD, this debate has not been completely resolved. […] This method provides quantitative information on amyloid fibrils growth. β-amyloid was allowed to form amyloid fibrils either in the presence of different concentrations of SY-83 (FIGS. 5A, C) or SY-81 (FIGS. 5B, D) or with no inhibitor (WT). The fibrillization process was followed for several days until a plateau state was reached. Fluorescence values were measured throughout.
An end point experiment was further conducted with various concentrations of SY-81 and SY-83 in order to determine IC50. An IC50 of 50 nM and 100 nM was measured for SY-81 and SY-83, respectively. […]

The nature of data set [1]: Locomotion (climbing) assay in Alzheimer's Drosophila model. It is filed as in vivo, Drosophila melanogaster. As to conditions: medium with 0.75 mg/ml, control males lacking Aβ1-42 expression. The protocol: In vivo studies (fly maintenance) were performed with Drosophila melanogaster flies grown on a standard corneal-molasses medium and kept at 25° C. As Drosophila females can store sperm cells in their bodies, crosses were conducted using virgin females collected no longer than 8 hours after eclosion at 25° C. or 18 hours after eclosion at 18° C. Adult offspring (F1) from the crosses were collected up to 9 days after the beginning of their eclosion at 25° C. in order to avoid collection of offspring from the next generation (F2). […]
The locomotion (climbing) assay was carried out in fresh rearing vials, each containing 10 flies of a given class (four classes mentioned below). […] The percent of flies which climbed to the top of the test tube was then calculated over time. […] Data were analyzed using standard ANOVA statistical exams.
In order to assess the effect of SY-81 and SY-83 in the living organism, a Drosophila model of Alzheimer's was used, based on the work of Crowther et al. (ibid) who generated transgenic flies that express the human Aβ1-42 protein conditionally, using the UAS-Gal4 expression system. […] These defects included progressive decline of locomotion in aged flies (measured as ability to climb up), and marked shortening of life span. […]
Suppression of climbing defects was assessed as detailed below in flies genotype: Gal4-elav^c155 UAS-Aβ1-42. […]

A further data set deals with 56 KD Aβ species. The experiment in a line: Western blot of soluble brain fractions (6E10 antibody). Type of data set: in vivo. The settings on record: 5XFAD mice, 1 mg intraperitoneally every other day for 4 months. (In western blotting, separated proteins are transferred to a membrane and probed.)

Read-outs that look alike come from different tables or passages of the source.

T2 sequence (P05067 672-711 limits assumed): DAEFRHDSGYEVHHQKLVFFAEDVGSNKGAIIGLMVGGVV
T1 sequence (P05067 672-713 limits assumed): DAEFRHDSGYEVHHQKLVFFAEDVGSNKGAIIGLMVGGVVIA

What is called IC50 is the concentration that gives 50% inhibition. Take `O=C1C=C(NC(Cc2c[nH]c3ccccc23)C(=O)O)C(=O)c2ccccc21` (stereo not shown) [SY-81]: in the data set with rat PC12 cell line, the “toxic effect of the compound on its own (cell viability)” value was “no toxic effect”. Also, the Kd on Aβ1-42 (fluorescence anisotropy, PBS pH 7.4, read-out: affinity towards Aβ) was about 90 nM. The IC50 on Aβ1-40 fibrils (end point experiment, various concentrations, read-out: IC50 of fibril formation) worked out at 50 nM. For the same molecule, the “climbing behavior of control males” value in data set [1] is “No effect”.

Consider `O=C1C(Cl)=C(NC(Cc2c[nH]c3ccccc23)C(=O)O)C(=O)c2ccccc21` (stereo not shown) [SY-83], for which the “reduction in 56 KD Aβ species in soluble brain fractions” value with 56 KD Aβ species is listed as 91%. Further, the Kd at Aβ1-42 was about 900 nM. The IC50 on Aβ1-40 fibrils came out at 100 nM.
